Measured values taken from patent US20130157954A1, “METHODS FOR TREATMENT OR PROPHYLAXIS OF KIDNEY OR LIVER DYSFUNCTION” (NPS PHARMACEUTICALS, INC., priority 2010, published 2013).

Assay: Example 2: liver biomarkers (albumin, gamma glutamyl transferase, total bilirubin, ALT, AST, ALP) in short bowel syndrome patients, every four weeks for 24 weeks; also sorted by >10% change from baseline
Assay type: in vivo, Human
Details: 0.05 mg/kg/d; for Bilirubin: subjects Within 10% of Baseline / Bilirubin: subjects with >10% decrease from Baseline / Bilirubin: subjects with >10% increase from Baseline / ALT: subjects Within 10% of Baseline / ALT: subjects with >10% decrease from Baseline / ALT: subjects with >10% increase from Baseline / AST: subjects Within 10% of Baseline / AST: subjects with >10% decrease from Baseline / AST: subjects with >10% increase from Baseline / Albumin: subjects Within 10% of Baseline / Albumin: subjects with >10% decrease from Baseline / Albumin: subjects with >10% increase from Baseline / Alkaline Phosphatase: subjects Within 10% of Baseline / Alkaline Phosphatase: subjects with >10% decrease from Baseline / Alkaline Phosphatase: subjects with >10% increase from Baseline: m = 40
Description: To further confirm the results of Example 1, a further study was conducted involving more individuals and additional diagnostic biomarkers. Human patients with short bowel syndrome were divided into two groups: a control group (43 total individuals) to receive placebo, and an experimental group (42 total individuals) to receive teduglutide at 0.05 mg/kg/day throughout the study. Patients were treated by subcutaneous injection of placebo or the appropriate dose of teduglutide. Known biomarkers of liver function were monitored every four weeks, for 24 weeks. The liver biomarkers tested included albumin, gamma glutamyl transferase, total bilirubin, ALT and AST and ALP. Before administration of placebo or teduglutide, diagnostic biomarker levels were tested to establish a baseline for each individual.
To determine the effect of GLP-2 on the levels of the diagnostic biomarkers, the average level of each biomarker was measured for the placebo and teduglutide treated groups for each visit. Furthermore, the average change from baseline was calculated using the established baseline values. For FIGS. 17-28, p-values were calculated using the t-test.
P values are provided, which were calculated for each distribution of biomarker changes for each week using the chi-squared test.

In the case of `CC[C@H](C)[C@H](NC(=O)[C@H](Cc1ccccc1)NC(=O)[C@H](CC(=O)O)NC(=O)[C@H](CCCNC(=N)N)NC(=O)[C@H](C)NC(=O)[C@H](C)NC(=O)[C@H](CC(C)C)NC(=O)[C@H](CC(N)=O)NC(=O)[C@H](CC(=O)O)NC(=O)[C@H](CC(C)C)NC(=O)[C@@H](NC(=O)[C@@H](NC(=O)[C@H](CC(N)=O)NC(=O)[C@H](CCSC)NC(=O)[C@H](CCC(=O)O)NC(=O)[C@H](CC(=O)O)NC(=O)[C@H](CO)NC(=O)[C@H](Cc1ccccc1)NC(=O)[C@H](CO)NC(=O)CNC(=O)[C@H](CC(=O)O)NC(=O)CNC(=O)[C@@H](N)Cc1c[nH]cn1)[C@@H](C)O)[C@@H](C)CC)C(=O)N[C@@H](CC(N)=O)C(=O)N[C@@H](Cc1c[nH]c2ccccc12)C(=O)N[C@@H](CC(C)C)C(=O)N[C@H](C(=O)N[C@@H](CCC(N)=O)C(=O)N[C@H](C(=O)N[C@@H](CCCCN)C(=O)N[C@H](C(=O)N[C@H](C(=O)N[C@@H](CC(=O)O)C(=O)O)[C@@H](C)O)[C@@H](C)CC)[C@@H](C)O)[C@@H](C)CC` [teduglutide], the “Bilirubin: subjects Within 10% of Baseline” value (Week 2) was 5 (12.5%) n (%), the “Bilirubin: subjects with >10% decrease from Baseline” value (Week 2) was 28 (70.0%) n (%) and the “Bilirubin: subjects with >10% increase from Baseline” value (Week 2) was 7 (17.5%) n (%). For the same compound, the “ALT Change from Baseline, Max” value (Week 4) was 29 U/L, the “ALT Change from Baseline, Mean” value (Week 4) was −9.2 U/L and the “ALT Change from Baseline, Median” value (Week 4) was −7 U/L. For the same compound, the “ALT Change from Baseline, Min” value (Week 4) was −44 U/L, the “ALT Observed Value, Max” value (Week 4) was 104 U/L and the “ALT Observed Value, Median” value (Week 4) was 29 U/L. The “ALT Observed Value, Min” value (Week 4) was 8 U/L, the “AST Change from Baseline, Max” value (Week 4) was 43 U/L and the “AST Change from Baseline, Mean” value (Week 4) was −3.5 U/L. For the same compound, the “AST Change from Baseline, Median” value (Week 4) was −5 U/L, the “AST Change from Baseline, Min” value (Week 4) was −31 U/L and the “AST Observed Value, Max” value (Week 4) was 89 U/L. For the same compound, the “AST Observed Value, Min” value (Week 4) was 13 U/L, the “Albumin Change from Baseline, Max” value (Week 4) was 5 g/L and the “Albumin Change from Baseline, Mean” value (Week 4) was -0.7 g/L. The “Albumin Change from Baseline, Median” value (Week 4) was -1 g/L, the “Albumin Change from Baseline, Min” value (Week 4) was -7 g/L and the “Albumin Observed Value, Max” value (Week 4) was 47 g/L. For the same compound, the “Albumin Observed Value, Median” value (Week 4) was 42 g/L, the “Albumin Observed Value, Min” value (Week 4) was 34 g/L and the “Alkaline Phosphatase Change from Baseline, Max” value (Week 4) was 34 U/L. For the same compound, the “Alkaline Phosphatase Change from Baseline, Min” value (Week 4) was −89 U/L, the “Alkaline Phosphatase Observed Value, Max” value (Week 4) was 307 U/L and the “Alkaline Phosphatase Observed Value, Min” value (Week 4) was 54 U/L. The “Bilirubin Change from Baseline, Max” value (Week 4) was 9.0 µmol/L, the “Bilirubin Change from Baseline, Mean” value (Week 4) was -1.10 µmol/L and the “Bilirubin Change from Baseline, Median” value (Week 4) was -1.5 µmol/L. The “Bilirubin Change from Baseline, Min” value (Week 4) was -14.2 µmol/L, the “Bilirubin Observed Value, Max” value (Week 4) was 54.0 µmol/L and the “Bilirubin Observed Value, Min” value (Week 4) was 3.4 µmol/L. For the same compound, the “Gamma Glutamyl Transferase Change from Baseline, Max” value (Week 4) was 105 U/L, the “Gamma Glutamyl Transferase Change from Baseline, Mean” value (Week 4) was 1.7 U/L and the “Gamma Glutamyl Transferase Change from Baseline, Median” value (Week 4) was −0.5 U/L. For the same compound, the “Gamma Glutamyl Transferase Change from Baseline, Min” value (Week 4) was −88 U/L, the “Gamma Glutamyl Transferase Observed Value, Max” value (Week 4) was 309 U/L and the “Gamma Glutamyl Transferase Observed Value, Min” value (Week 4) was 12 U/L. The “ALT: subjects Within 10% of Baseline” value (Week 4) was 8 (20.0%) n (%), the “ALT: subjects with >10% decrease from Baseline” value (Week 4) was 26 (65.0%) n (%) and the “ALT: subjects with >10% increase from Baseline” value (Week 4) was 6 (15.0%) n (%). For the same compound, the “AST: subjects Within 10% of Baseline” value (Week 4) was 6 (15.0%) n (%), the “AST: subjects with >10% decrease from Baseline” value (Week 4) was 26 (65.0%) n (%) and the “AST: subjects with >10% increase from Baseline” value (Week 4) was 8 (20.0%) n (%). For the same compound, the “Albumin: subjects Within 10% of Baseline” value (Week 4) was 35 (87.5%) n (%), the “Albumin: subjects with >10% decrease from Baseline” value (Week 4) was 3 (7.5%) n (%) and the “Albumin: subjects with >10% increase from Baseline” value (Week 4) was 2 (5.0%) n (%). For the same compound, the “Alkaline Phosphatase: subjects Within 10% of Baseline” value (Week 4) was 16 (40.0%) n (%), the “Alkaline Phosphatase: subjects with >10% decrease from Baseline” value (Week 4) was 22 (55.0%) n (%) and the “Alkaline Phosphatase: subjects with >10% increase from Baseline” value (Week 4) was 2 (5.0%) n (%). The “Bilirubin: subjects Within 10% of Baseline” value (Week 4) was 7 (17.5%) n (%), the “Bilirubin: subjects with >10% decrease from Baseline” value (Week 4) was 19 (47.5%) n (%) and the “Bilirubin: subjects with >10% increase from Baseline” value (Week 4) was 14 (35.0%) n (%). For the same compound, the “ALT Change from Baseline, Max” value (Week 8) was 20 U/L, the “ALT Change from Baseline, Median” value (Week 8) was −5.5 U/L and the “ALT Change from Baseline, Min” value (Week 8) was −65 U/L. For the same compound, the “ALT Observed Value, Max” value (Week 8) was 138 U/L, the “ALT Observed Value, Median” value (Week 8) was 26 U/L and the “ALT Observed Value, Min” value (Week 8) was 9 U/L. The “AST Change from Baseline, Max” value (Week 8) was 17 U/L, the “AST Change from Baseline, Mean” value (Week 8) was −5.1 U/L and the “AST Change from Baseline, Median” value (Week 8) was −5 U/L. For the same compound, the “AST Change from Baseline, Min” value (Week 8) was −46 U/L, the “AST Observed Value, Max” value (Week 8) was 63 U/L and the “AST Observed Value, Min” value (Week 8) was 8 U/L. The “Albumin Change from Baseline, Max” value (Week 8) was 4 g/L, the “Albumin Change from Baseline, Mean” value (Week 8) was -0.7 g/L and the “Albumin Change from Baseline, Median” value (Week 8) was -1 g/L. The “Albumin Change from Baseline, Min” value (Week 8) was -5 g/L, the “Albumin Observed Value, Max” value (Week 8) was 48 g/L and the “Albumin Observed Value, Median” value (Week 8) was 42 g/L. For the same compound, the “Albumin Observed Value, Min” value (Week 8) was 36 g/L, the “Alkaline Phosphatase Change from Baseline, Max” value (Week 8) was 19 U/L and the “Alkaline Phosphatase Change from Baseline, Min” value (Week 8) was −105 U/L. The “Alkaline Phosphatase Observed Value, Max” value (Week 8) was 341 U/L, the “Alkaline Phosphatase Observed Value, Median” value (Week 8) was 94 U/L and the “Alkaline Phosphatase Observed Value, Min” value (Week 8) was 46 U/L. For the same compound, the “Bilirubin Change from Baseline, Max” value (Week 8) was 6.8 µmol/L, the “Bilirubin Change from Baseline, Mean” value (Week 8) was -1.60 µmol/L and the “Bilirubin Change from Baseline, Median” value (Week 8) was -0.95 µmol/L. The “Bilirubin Change from Baseline, Min” value (Week 8) was -14.9 µmol/L, the “Bilirubin Observed Value, Max” value (Week 8) was 61.8 µmol/L and the “Bilirubin Observed Value, Min” value (Week 8) was 3.4 µmol/L. For the same compound, the “Gamma Glutamyl Transferase Change from Baseline, Max” value (Week 8) was 77 U/L, the “Gamma Glutamyl Transferase Change from Baseline, Mean” value (Week 8) was −5.7 U/L and the “Gamma Glutamyl Transferase Change from Baseline, Median” value (Week 8) was −5.5 U/L. For the same compound, the “Gamma Glutamyl Transferase Change from Baseline, Min” value (Week 8) was −145 U/L, the “Gamma Glutamyl Transferase Observed Value, Max” value (Week 8) was 281 U/L and the “Gamma Glutamyl Transferase Observed Value, Median” value (Week 8) was 46 U/L. The “Gamma Glutamyl Transferase Observed Value, Min” value (Week 8) was 6 U/L, the “ALT: subjects Within 10% of Baseline” value (Week 8) was 7 (17.5%) n (%) and the “ALT: subjects with >10% decrease from Baseline” value (Week 8) was 26 (65.0%) n (%). The “ALT: subjects with >10% increase from Baseline” value (Week 8) was 7 (17.5%) n (%), the “AST: subjects Within 10% of Baseline” value (Week 8) was 8 (20.0%) n (%) and the “AST: subjects with >10% decrease from Baseline” value (Week 8) was 24 (60.0%) n (%). The “AST: subjects with >10% increase from Baseline” value (Week 8) was 8 (20.0%) n (%), the “Albumin: subjects Within 10% of Baseline” value (Week 8) was 38 (95.0%) n (%) and the “Albumin: subjects with >10% decrease from Baseline” value (Week 8) was 1 (2.5%) n (%). For the same compound, the “Albumin: subjects with >10% increase from Baseline” value (Week 8) was 1 (2.5%) n (%), the “Alkaline Phosphatase: subjects Within 10% of Baseline” value (Week 8) was 13 (32.5%) n (%) and the “Alkaline Phosphatase: subjects with >10% decrease from Baseline” value (Week 8) was 25 (62.5%) n (%). For the same compound, the “Alkaline Phosphatase: subjects with >10% increase from Baseline” value (Week 8) was 2 (5.0%) n (%).
